The structures appear in SMILES notation. Calls of active or inactive are those of the source. No cut-off for these calls is given here.

Series [1] deals with T1, Glycogen synthase kinase-3 beta (Homo sapiens, UniProt P49841). As to the kind of experiment: Inhibition of GSK3bbeta in human SH-SY5Y cells assessed as reduction in human amyloid beta (25 to 35) peptide-induced tau hyperphosphorylation at Ser396 residue at […] preincubated for 1 hr followed by amyloid beta-stimulation and measured after 6 hrs by Western blot analysis. It counts as cell-based. Background: A western blot detects proteins with antibodies after separation by electrophoresis.
Target sequence in this assay (P49841 whole entry, looked up): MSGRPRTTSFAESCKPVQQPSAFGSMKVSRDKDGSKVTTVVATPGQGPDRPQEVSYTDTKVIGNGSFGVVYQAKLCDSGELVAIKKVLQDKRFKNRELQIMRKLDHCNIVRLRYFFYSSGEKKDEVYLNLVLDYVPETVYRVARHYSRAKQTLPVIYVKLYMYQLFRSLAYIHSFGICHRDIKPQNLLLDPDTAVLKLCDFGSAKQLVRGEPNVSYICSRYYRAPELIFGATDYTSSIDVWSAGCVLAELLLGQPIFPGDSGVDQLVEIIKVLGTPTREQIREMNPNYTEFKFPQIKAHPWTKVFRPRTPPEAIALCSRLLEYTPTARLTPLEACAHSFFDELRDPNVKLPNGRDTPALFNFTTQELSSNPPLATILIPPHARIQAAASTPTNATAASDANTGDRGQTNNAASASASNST

Series [2] deals with T1, Glycogen synthase kinase-3 beta. The series can be described thus: Inhibition of GSK-3beta (unknown origin) using FAM-labeled peptide as substrate preincubated for 10 mins followed by substrate addition by caliper assay.
Target sequence in this assay (P49841 whole entry): as the sequence (P49841 whole entry, looked up) above
Series [3] can be described thus: Metal chelating activity assessed as Na+-compound complex formation at 20 uM in the presence of NaCl after 30 mins by UV-vis spectrophotometric analysis.
The nature of series [4]: Metal chelating activity assessed as K+-compound complex formation at 20 uM in the presence of KCl after 30 mins by UV-vis spectrophotometric analysis.
A short description of series [5]: Metal chelating activity assessed as compound-Ca2+ complex formation at 20 uM in the presence of CaCl2 after 30 mins by UV-visible spectrophotometric analysis.
Series [6] can be described thus: Metal chelating activity assessed as compound-Fe2+ complex formation at 20 uM in the presence of FeSO4 after 30 mins by UV-visible spectrophotometric analysis.
The nature of series [7]: Metal chelating activity assessed as compound-Mg2+ complex formation at 20 uM in the presence of MgCl2 after 30 mins by UV-visible spectrophotometric analysis.
Series [8] in a line: Metal chelating activity assessed as compound-Zn2+ complex formation at 20 uM in presence of ZnCl2 after 30 mins by UV-visible spectrophotometric analysis.
In series [9] the target is Amyloid-beta precursor protein (Homo sapiens) (UniProt P05067). The series can be described thus: Inhibition of human HFIP-pretreated amyloid beta (1 to 42) self aggregation at 40 uM after 24 hrs by ThT-based fluorometric method relative to control.
Amyloid-beta precursor protein (Homo sapiens), sequence (P05067 whole entry): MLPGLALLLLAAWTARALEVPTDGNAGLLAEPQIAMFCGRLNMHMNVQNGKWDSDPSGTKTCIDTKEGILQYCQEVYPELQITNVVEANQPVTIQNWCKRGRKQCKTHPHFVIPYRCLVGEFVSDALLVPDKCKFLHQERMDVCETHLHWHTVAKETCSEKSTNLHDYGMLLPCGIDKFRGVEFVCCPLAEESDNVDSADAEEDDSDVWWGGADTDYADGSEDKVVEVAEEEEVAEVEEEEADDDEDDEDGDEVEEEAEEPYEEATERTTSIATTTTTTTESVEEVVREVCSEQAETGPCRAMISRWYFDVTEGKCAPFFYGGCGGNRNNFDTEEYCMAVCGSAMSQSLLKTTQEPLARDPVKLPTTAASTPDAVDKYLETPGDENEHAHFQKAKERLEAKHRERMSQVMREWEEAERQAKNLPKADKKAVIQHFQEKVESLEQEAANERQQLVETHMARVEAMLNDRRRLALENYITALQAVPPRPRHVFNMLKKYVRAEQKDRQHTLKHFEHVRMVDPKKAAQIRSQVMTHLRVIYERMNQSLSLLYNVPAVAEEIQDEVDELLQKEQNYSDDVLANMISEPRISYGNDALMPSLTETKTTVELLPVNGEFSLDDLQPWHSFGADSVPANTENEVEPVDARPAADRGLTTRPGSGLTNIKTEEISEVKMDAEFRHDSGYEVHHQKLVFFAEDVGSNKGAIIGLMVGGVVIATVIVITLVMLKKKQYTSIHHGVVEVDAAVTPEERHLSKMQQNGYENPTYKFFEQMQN
For series [10] the target is unchanged. As to the kind of experiment: Disaggregation of HFIP-pretreated human amyloid beta (1 to 42) preformed fibrils at 40 uM after 24 hrs by ThT-based fluorometric method relative to control.
Series [11] is described as follows: Inhibition of Cu2+-induced HFIP pretreated human amyloid beta (1 to 42) aggregation at 40 uM measured after 24 hrs by ThT-based fluorescence assay relative to control.
Series [12] can be described thus: Disaggregation of Cu2+ induced human HFIP-pretreated amyloid beta (1 to 42) preformed fibrils at 40 uM measured after 24 hrs by ThT-based fluorescence assay relative to control.
Series [13] can be described thus: Metal chelating activity assessed as inhibition of Cu(II)/ascorbate-induced ROS production by measuring fluorescence intensity at 100 uM measured at 20 secs interval for 1000 secs by fluorescence assay (reference value: 10 to 52).
Series [14] can be described thus: Antioxidant activity assessed as ABTS radical scavenging activity incubated for 6 mins. It counts as functional.
Series [15] in a line: Potency index, ratio of trolox IC50 to test compound IC50 for ABTS radical scavenging activity. It counts as functional.
The test system of series [16] is SH-SY5Y. The series can be described thus: Cytotoxicity against human SH-SY5Y cells measured after 24 hrs by MTT assay. It counts as cell-based.
In series [17] the test system is PC-12. As to the kind of experiment: Cytotoxicity against rat PC12 cells measured after 24 hrs by MTT assay. The series is classed as cell-based. The conditions noted are these: PC-12, 24 h. (In general: Tetrazolium assays rely on reduction of a dye to a coloured formazan, in cell work by metabolically active cells.)
For series [18], the system named is SH-SY5Y. As to the kind of experiment: Neuroprotective activity against H2O2-induced oxidative damage in human SH-SY5Y cells assessed as increase in cell viability measured after 24 hrs by MTT assay. It counts as functional, cell-based.
Series [19] concerns SH-SY5Y. The series can be described thus: Neuroprotective activity against H2O2-induced oxidative damage in human SH-SY5Y cells assessed as cell viability at 10 uM measured after 24 hrs by MTT assay relative to control. It counts as functional. The conditions noted are these: read-out: Activity.
For series [20], the system named is PC-12. The series can be described thus: Neuroprotective activity against H2O2-induced oxidative damage in rat PC12 cells assessed as cell viability at 10 uM measured after 24 hrs by MTT assay relative to control. It counts as functional. The conditions noted are these: PC-12, 24 h, read-out: Activity.
Series [21] concerns SH-SY5Y. The series can be described thus: Neuroprotective activity against amyloid beta (1 to 42) (unknown origin)-induced cytotoxicity in SH-SY5Y cells assessed as cell viability at 2 uM measured after 24 hrs by MTT assay (reference value: 78%). The series is classed as functional. The settings on record: Homo sapiens.
Series [22] has as its target T1, Glycogen synthase kinase-3 beta. The series can be described thus: Inhibition of GSK3bbeta in human SH-SY5Y cells assessed as reduction in human amyloid beta (25 to 35) peptide-induced tau hyperphosphorylation at Ser396 residue at 25 uM preincubated for 1 hr followed by amyloid beta-stimulation and measured after 6 hrs by Western blot analysis relative to control. It counts as cell-based.
Target sequence in this assay (P49841 whole entry, looked up): as the sequence (P49841 whole entry, looked up) above

For series [23], the system named is SH-SY5Y. The series can be described thus: Cytotoxicity against human SH-SY5Y cells at 2 uM in the presence of CuCl2 measured after 24 hrs by MTT assay. It counts as cell-based.
Series [24] addresses T1, Glycogen synthase kinase-3 beta. As to the kind of experiment: Inhibition of GSK3bbeta in human SH-SY5Y cells assessed as reduction in human amyloid beta (25 to 35) peptide-induced tau hyperphosphorylation at Ser396 residue preincubated for 1 hr followed by amyloid beta-stimulation and measured after 6 hrs by Western blot analysis. It counts as cell-based.
Target sequence in this assay (P49841 whole entry, looked up): as above
Series [25] in a line: Metal chelating activity assessed as compound-Cu2+ complex formation by measuring blue shift in maximum absorption at 20 uM in presence of CuCl2 after 30 mins by UV-visible spectrophotometric analysis (reference value: 244 nanometer).
Series [26] in a line: Metal chelating activity assessed as compound-Al3+ complex formation by measuring blue shift in maximum absorption at 20 uM in the presence of AlCl3 after 30 mins by UV-visible spectrophotometric analysis (reference value: 407 nanometer).
In series [27] the test system is SH-SY5Y. The series can be described thus: Neuroprotective activity against Cu2+-mediated amyloid beta (1 to 42) (unknown origin)-induced cytotoxicity in human SH-SY5Y cells assessed as increase in cell viability at 2 uM measured after 24 hrs by MTT assay. The series is classed as functional, cell-based.
Series [28] has as its system SH-SY5Y. The series can be described thus: Neuroprotective activity against Cu2+-mediated amyloid beta (1 to 42) (unknown origin)-induced cytotoxicity in human SH-SY5Y cells assessed as cell viability at 2 uM measured after 24 hrs by MTT assay (reference value: 71%). It counts as functional. The settings on record: read-out: Activity.
Series [29] can be described thus: Metal chelating activity assessed as compound-Cu2+ complex formation by measuring blue shift in maximum absorption at 20 uM in presence of CuCl2 after 30 mins by UV-visible spectrophotometric analysis (reference value: 248 nanometer).
A short description of series [30]: Metal chelating activity assessed as compound-Al3+ complex formation by measuring blue shift in maximum absorption at 20 uM in the presence of AlCl3 after 30 mins by UV-visible spectrophotometric analysis (reference value: 248 to 407 nanometer).
Series [31] in a line: Potency index, ratio of test compound effect to clioquinol effect for disaggregation of Cu2+ induced human HFIP-pretreated amyloid beta (1 to 42) preformed fibrils.

Take `[Cl-].[Li+]`: the inhibition result in [1] was “Active”.

On to `Nc1ncc(-c2ccncc2)cc1/N=C/c1ccnc(NC(=O)C2CC2)c1`, for which the IC50 in series [2] was 0.038 µM; in series [14], 3.44 µM; with SH-SY5Y [16] it was over 200 µM; with PC-12 [17], 161 µM. Further, the result in series [3], in [4], in [5], in [6], in series [7] and in series [8] was inactive. For the same compound, the outcome (in series [10]; with SH-SY5Y [21]) was inactive. Moreover, the inhibition entry in series [9] was “inactive”. The figures for the inhibition in [11], in [22] and in series [24] were 33.8%, under 50% and “Dose-dependent effect”, respectively. The Activity in series [12] is 50.9%; in the series with SH-SY5Y [18] it was “Dose-dependent effect”; in the series with SH-SY5Y [23], “Non-Toxic”; in series [25], 241 nm; in series [26], 378 nm. Besides, the Flu intensity in series [13] lay in the range of 33 to 54. Besides, the Ratio IC50 in [15] lay in the range of 2 to 4. The values for the viability at 10 µM in the series with SH-SY5Y [19] and with PC-12 [20] were 92% and 76.4%, respectively. Besides, the outcome in the series on SH-SY5Y [27] was Active.

On to `Nc1ncc(-c2ccccc2)cc1/N=C/c1ccnc(NC(=O)C2CC2)c1`, for which the IC50 in [2] amounted to 0.049 µM; in series [14], 7.3 µM; in the series on SH-SY5Y [16], 158 µM; in the series with PC-12 [17], 83.2 µM. Further, the outcome in series [3], in [4], in series [5], in [6], in series [7] and in series [8] was inactive. The result (in series [10]; in the series with SH-SY5Y [21]) was inactive. In addition, in series [9], the inhibition result is “inactive”. The inhibition was 63% in series [11], under 50% in series [22] and “Dose-dependent effect” in series [24]. The Activity in [12] is 66.1%; with SH-SY5Y [18], “Dose-dependent effect”; in the series with SH-SY5Y [23], “Non-Toxic”; in [29], 244 nm; in series [30], 242 to 339 nm. Besides, in series [13], the Flu intensity is 53 to 68. Besides, the Ratio IC50 in series [15] lay within 2 to 4. Moreover, the viability at 10 µM was found to be 92.7% in the series on SH-SY5Y [19] and 71.8% in the series with PC-12 [20]. The viability at 2 µM in the series on SH-SY5Y [28] stood at 93%. The Ratio in series [31] came to 2.

For orientation: inhibition means the percentage by which the read-out fell short of the control. For orientation: IC50 means the concentration needed to halve the response being measured.

(Values after ChEMBL document CHEMBL4340509, “Synthesis and evaluation of novel GSK-3β inhibitors as multifunctional agents against Alzheimer's disease” (Eur J Med Chem, 2019).)
